Laboratory results reported in patent US20030194738A1, “Antisense oligonucleotide compositions and methods for the modulation of activating protein 1” (priority 1997, published 2003).
Values joined by “and” are separate entries in the source; they are usually repeats but may differ in a detail not shown here. Equal entries are not always repeated. “Also recorded” adds a separate entry of the source. Strand notation (5' to 3'): a small letter for the sugar, then the base; units joined by * are phosphorothioate-linked, units joined directly phosphodiester-linked; [ ] holds rarer units or linkages, { } end groups; capitals alone tell only the bases. d = 2'-deoxy (DNA)

What was measured:
c-fos mRNA [1] = experiment: c-fos mRNA expression in TPA-induced A549 cells, Northern blotting; type: cell-based, human; details: for c-fos (mRNA level, specificity experiment): Table 5, TPA - no oligo = 100, basal = 5
Procedure: (§1) In order to evaluate the activity of potential c-fos and c-jun modulating oligonucleotides, A549 cells were grown in T-75 flasks until 80-90% confluent. (Cell line A549 is available from, inter alia, the American Type Culture Collection, Rockville, Md., as ATCC No. CCL-185.) At this time, the cells were washed twice with 10 mL of media (DMEM), followed by the addition of 5 mL of DMEM containing 20 μg/mL of LIPOFECTIN™ (i.e., DOTMA/DOPE (N-[1-(2,3-dioleyloxy)propyl]-N,N,N-[…] chloride/dioleoylphosphatidyl ethanolamine)). The oligonucleotides were added from a 10 μM stock solution to a final concentration of 400 nM, and the two solutions were mixed by swirling the flasks. After 4 hours at 37° C., the medium was replaced with DMEM containing 10% serum. At this point, 1 μM 12-O-tetradecanoylphorbol 13-acetate (TPA) was added to induce expression of c-fos and c-jun. Cells were extracted in guanidinium one hour later, and the c-fos and c-jun mRNA expression was determined by Northern blotting. Probes for human c-jun and c-fos were PCR products prepared using primers based on the published sequences thereof (respectively, Hattori et al., Proc. Natl. Acad. Sci. U.S.A., 1988, 85:9148, and Van Straaten et al., Proc. Natl. Acad. Sci. U.S.A., 1983, 80:3183).
Finally, it can also be seen from Table 5 that neither active oligonucleotide has any detectable effect on mRNA levels of the other active oligonucleotide's target.
Once oligonucleotides that modulate c-Fos or c-Jun are identified, derivative or modified oligonucleotides having the same sequence thereas are prepared. In order to evaluate the effect of chemical modifications to oligonucleotides to c-fos and c-jun, the modified oligonucleotides described in Tables 8 and 9 were prepared. The effect of the c-fos-targeted oligonucleotides on c-fos RNA levels were evaluated as described in Examples 2-3. […] Other modified oligonucleotides of the invention are evaluated in like fashion. In order to evaluate the effect of PNA antisense analogs, the PNA analogs of the invention are introduced into appropriate cell lines by microinjection according to the method of Hanvey et al. (Science, 1992, 258:1481). Intracellular delivery of PNA analogs is confirmed by the use of a fluorescently tagged PNA antisense analog conjugate such as, e.g., ISIS 14240.

c-Fos protein = c-Fos protein levels in TPA-induced A549 cells, immunoblot; type: cell-based, human; details: TPA (1 uM) for three hours; for c-Fos (protein level): Table 7, TPA - no oligo = 100, basal = 21
Procedure: The ability of the c-fos active oligonucleotide ISIS 10639 to reduce expression of the c-Fos protein was examined as follows. A549 cells were treated with oligonucleotides as in Examples 2-3, except that induction of c-Fos was effected by treatment of cells with TPA (1 uM) for three hours. At this time, whole cell protein was extracted in SDS (sodium dodecyl sulfate) buffer. Samples of extracts were electrophoresed, transferred to nitrocellulose filters which were immunoblotted using a c-Fos-specific antibody (Santa Cruz AB, Santa Cruz, Calif.).

c-fos mRNA [2] = experiment: c-fos mRNA expression in TPA-induced A549 cells, Northern blotting; type: cell-based, human; details: TPA induction, 1 hour
c-jun mRNA = c-jun mRNA expression in TPA-induced A549 cells, Northern blotting; type: cell-based, human; details: for effect on c-jun mRNA levels during TPA induction (in words) / c-jun (mRNA level, specificity experiment) / c-jun mRNA LEVELS (% CONTROL): A549 cells; for c-jun (mRNA level, specificity experiment): Table 5, TPA - no oligo = 100, basal = 23; for c-jun mRNA LEVELS (% CONTROL): TPA induction, 1 hour
Procedure: as §1, with “The oligonucleotides were added from a 10 μM stock solution to a final concentration of 400 nM, and the two solutions were mixed by swirling the flasks.” left out

A549 tumors = experiment: Growth of A549 tumor fragments implanted subcutaneously in nude mice; type: in vivo; details: 25 mg/kg daily i.v. for three weeks; for Mean Tumor Weight: nude mice
Procedure: In order to evaluate the in vivo activity of c-fos oligonucleotides, 25 mg of tumor fragments of A549 tumors were implanted subcutaneously in nude mice (n=6). ISIS 10639 was administered daily, i.v., for three weeks. The oligonucleotide dosage was 25 mg/kg. […] By day 34, saline-treated tumors were 0.56±0.12 g by weight, while tumors treated with ISIS 10639 were 0.31±0.1 g by weight.

c-Jun = experiment: Induction of c-Jun by TNF-a, IL-1b or TGF-b in A549 cells; type: cell-based, human; details: for c-Jun induction by IL-1b: inducer IL-1b 10 ng/ml, No Oligo = 100, basal = 9; for c-Jun induction by TGF-b: inducer TGF-b 10 ng/ml, No Oligo = 100, basal = 2; for c-Jun induction by TNF-a: inducer TNF-a 10 ng/ml, No Oligo = 100, basal = 5
Procedure: Inducing agents other than TPA function to raise AP-1 levels in vivo. In order to assess the ability of oligonucleotides targeted to AP-1 to antagonize the action of three such inducers, A549 cells were treated and evaluated as in Examples 2 et seq. with the exception that TNF-a, IL-1b or TGE-b (each at 10 ng/mi and all from R&D Systems, Minneapolis, Minn.) were used in place of TPA as inducers.

MMP-9 = MMP-9 expression in TPA-induced normal human epidermal keratinocytes; type: cell-based; details: for MMP-9 (expression): Table 17, NHEK cells harvested 24 hours after TPA treatment for 4 hours, TPA - no oligo = 100, basal = 4
Description: The matrix metalloproteinases (MMPs) are a family of enzymes which have the ability to degrade components of the extracellular matrix (Birkedal-Hansen, Current Op. Biol., 1995, 7, 728). […] In particular, one member of this family, matrix metalloproteinase-9 (MMP-9), is often found to be expressed only in tumors and other diseased tissues (Himeistein et al., Invasion & Metastasis, 1994, 14, 246). Several studies have shown that regulation of the MMP-9 gene may be controlled by the AP-1 transcription factor (Kerr et al., Science, 1988, 242, 1242; Kerr et al., Cell, 1990, 61, 267; Gum et al., J. Biol. Chem., 1996, 271, 10672; Hua et al., Cancer Res., 1996, 56, 5279). In order to determine whether MMP-9 expression can be influenced by AP-1 modulation, the following experiments were conducted on normal human epidermal keratinocytes (NHEKs). Although NHEKs normally express no detectable MMP-9, MMP-9 can be induced by a number of stimuli, including TPA. ISIS 10582, an oligonucleotide targeted to c-jun, was evaluated for its ability to modulate MMP-9 expression according to the protocols described in Examples 2-3 with the following exceptions: (1) NHEK cells were used instead of A549 cells, (2) the probe used, a PCR product prepared using the published sequence of the MMP-9 gene (Huhtala et al., J. Biol. Chem., 1991, 266:16485; Sato et al., Oncogene, 1993, 8:395), is specific for MMP-9 rather than c-jun, and (3) the cells were harvested 24 hours after TPA treatment for 4 hours.

[3] = 400 nM oligonucleotide with LIPOFECTIN, control is TPA induction, at 1 hour, in A549 cells
[4] = 400 nM oligonucleotide, TPA-induced A549 cells

## AAG-TCC-TTG-AGG-CCC-ACA-GC (AAGTCCTTGAGGCCCACAGC; antisense; all phosphorothioate, sugars by position and methylation of C not given here) [ISIS 10639]
c-fos mRNA [1]; [3]
  c-fos mRNA % CONTROL: 9 % CONTROL
c-fos mRNA [1]; [4]
  inhibition of c-fos mRNA expression: 91%
c-fos mRNA [1]; 400 nM oligonucleotide, TPA induction, 1 hour, A549 cells
  c-fos mRNA LEVELS (% CONTROL): 9 % CONTROL
c-fos mRNA [1]; A549 cells
  effect on c-fos mRNA levels during TPA induction (in words): dose-dependent; also recorded: potent and specific inhibition
  c-fos (mRNA level, specificity experiment): 9
c-fos mRNA [1]; Table 10, TPA - no oligo = 100, basal = 3, A549 cells
  c-fos (expression, modified oligonucleotides): 9
c-Fos protein; A549 cells
  c-Fos protein level (in words): basal levels
c-Fos protein
  c-Fos (protein level): 19
c-fos mRNA [2]; 50 nM oligonucleotide
  c-fos mRNA LEVELS (% CONTROL): 64 % CONTROL
c-fos mRNA [2]; 100 nM oligonucleotide
  c-fos mRNA LEVELS (% CONTROL): 46 % CONTROL
c-fos mRNA [2]; 200 nM oligonucleotide
  c-fos mRNA LEVELS (% CONTROL): 20.5 % CONTROL
c-jun mRNA
  effect on c-jun mRNA levels during TPA induction (in words): no detectable effect
  c-jun (mRNA level, specificity experiment): 97
A549 tumors; versus saline
  tumor growth rate (in words): substantial reduction
A549 tumors; Day 17
  Mean Tumor Weight: 0.105 g
A549 tumors; Day 20
  Mean Tumor Weight: 0.138 g
A549 tumors; Day 27
  Mean Tumor Weight: 0.225 g
A549 tumors; Day 34, 25 mg/kg
  Mean Tumor Weight: 0.31 ± 0.1 g and 0.310 g

## ACG-TCC-GAT-TCC-GAG-CGC-AA (ACGTCCGATTCCGAGCGCAA; antisense; DNA, all phosphorothioate, methylation of C not given here) [ISIS 11186]
c-fos mRNA [1]; A549 cells
  effect on c-fos mRNA levels during TPA induction (in words): no detectable effect
  c-fos (mRNA level, specificity experiment): 98
c-Fos protein
  c-Fos (protein level): 99
c-jun mRNA
  c-jun (mRNA level, specificity experiment): 99

## ATG-TGC-TAG-ATG-CGC-AAA-GT (ATGTGCTAGATGCGCAAAGT; antisense; DNA, all phosphorothioate, methylation of C not given here) [ISIS 11185]
c-fos mRNA [1]; A549 cells
  effect on c-fos mRNA levels during TPA induction (in words): no detectable effect
  c-fos (mRNA level, specificity experiment): 93
c-Fos protein
  c-Fos (protein level): 91
c-jun mRNA
  c-jun (mRNA level, specificity experiment): 98

## CAC-CTC-CAC-GCG-CTT-CTG-GC (dC*dA*dC*dC*dT*dC*dC*dA*dC*dG*dC*dG*dC*dT*dT*dC*dT*dG*dG*dC; antisense) [ISIS 11563]
c-fos mRNA [1]; A549 cells
  c-fos (mRNA level, specificity experiment): 99
c-Jun
  stimulation / induction of c-Jun by TNF-a or IL-1b (in words): did not reverse
  c-Jun induction by IL-1b: 94
  c-Jun induction by TGF-b: 99
  c-Jun induction by TNF-a: 98
MMP-9
  MMP-9 (expression): 95

## GAG-AGA-CCG-TCG-GGC-GCT-GA (GAGAGACCGTCGGGGGCTGA; listed as DNA, chemistry not given here) [ISIS 11562]
c-fos mRNA [1]; A549 cells
  c-fos (mRNA level, specificity experiment): 89
MMP-9
  MMP-9 (expression): 99

## GCT-GTG-GGC-CTC-AAG-GAC-TT (GCTGTGGGCCTCAAGGACTT; antisense; DNA, all phosphorothioate, methylation of C not given here) [ISIS 11184]
c-fos mRNA [1]; A549 cells
  effect on c-fos mRNA levels during TPA induction (in words): no detectable effect
  c-fos (mRNA level, specificity experiment): 84
c-Fos protein
  c-Fos (protein level): 97
c-jun mRNA
  c-jun (mRNA level, specificity experiment): 91

## TCA-GCC-CCC-GAC-GGT-CTC-TC (dT*dC*dA*dG*dC*dC*dC*dC*dC*dG*dA*dC*dG*dG*dT*dC*dT*dC*dT*dC; antisense) [ISIS 10582]
c-fos mRNA [1]; A549 cells
  effect on c-fos mRNA levels during TPA induction (in words): no detectable effect
  c-fos (mRNA level, specificity experiment): 91
c-jun mRNA; 50 nM oligonucleotide
  c-jun mRNA LEVELS (% CONTROL): 72 % CONTROL
c-jun mRNA; 100 nM oligonucleotide
  c-jun mRNA LEVELS (% CONTROL): 45.5 % CONTROL
c-jun mRNA; 200 nM oligonucleotide
  c-jun mRNA LEVELS (% CONTROL): 29.5 % CONTROL
c-jun mRNA; [3]
  c-jun mRNA % CONTROL: 17 % CONTROL
c-jun mRNA; [4]
  inhibition of c-jun mRNA expression: 83%
c-jun mRNA; 400 nM oligonucleotide
  c-jun mRNA LEVELS (% CONTROL): 16 % CONTROL
c-jun mRNA
  effect on c-jun mRNA levels during TPA induction (in words): dose-dependent; also recorded: potent and specific inhibition
  c-jun (mRNA level, specificity experiment): 4
c-Jun
  stimulation / induction of c-Jun by TNF-a or IL-1b (in words): effectively reduces
  c-Jun induction by IL-1b: 15
  c-Jun induction by TGF-b: 95
  c-Jun induction by TNF-a: 20
MMP-9; NHEK cells
  expression of MMP-9 after induction with TPA (in words): completely inhibit
MMP-9
  MMP-9 (expression): 6

## TCG-GCA-CCT-GAA-GGA-CTT-TC (dT*dC*dG*dG*dC*dA*dC*dC*dT*dG*dA*dA*dG*dG*dA*dC*dT*dT*dT*dC; antisense) [ISIS 11564]
c-fos mRNA [1]; A549 cells
  c-fos (mRNA level, specificity experiment): 99
c-jun mRNA
  effect on c-jun mRNA levels during TPA induction (in words): no detectable effect
  c-jun (mRNA level, specificity experiment): 71
MMP-9
  MMP-9 (expression): 89
